In paper PMC8411703 (Frontiers in Pharmacology, 2021):

Experiments:
[1] = in vivo; cited from earlier work
Pseudomonas aeruginosa = details: in vivo
Procedure: For meropenem analysis, we used the plasma concentration at 1 h after the end of a 3-h infusion of the drug corresponding to a dosing interval of 50%.

[2] = Protocol: This study was a prospective, multicentric, PK/PD study. It included pediatric patients who were admitted to the pediatric ICU between July 2017 and November 2019 at two hospitals in Santiago, Chile. The Ethical Committee for Research of Clinica Las Condes approved this prospective study (approval number: M012017) and required signed written informed consent from each patient’s parents. […] Neonates were excluded.
Meropenem was administered as a 3-h infusion with intravenous doses of 20–40 mg/kg every 8 or 12 h. […] Both antibiotics’ doses were adjusted according to renal function. Blood samples were collected at 1 and 3 h post-infusion and before the following dose for meropenem.
Unbound meropenem plasma concentrations were determined by high-performance liquid chromatography (Agilent Infinity 1,260, Santa Clara, United States) with a UV detector. The methodology was adapted to the equipment conditions from available publications ([Elkhaïli et al., 1996]; [McWhinney et al., 2010]; [Wolff et al., 2013]) and validated according to the recommendations of the Bioanalytical Method Validation Guidance for Industry ([U.S. Department of Health and Human Services, 2018]). The stationary phase was a Zorbax Eclipse Plus C18 column (3.5 μm, 75 × 4.6 mm) and the mobile phase was acetonitrile with 10 mM ammonium acetate (pH 4.0) (5:95, organic solvent:buffer initiallity) in gradient to minute 7(50:50, organic solvent:buffer). Meropenem was detected by UV detection at 298 nm. The flow rate was 1.0 ml/min. […] Standard curves were prepared in blank human plasma. […] Meropenem in plasma samples was quantified using the peak area of standard samples for calibrations.
For both analytes, the measurement was performed on the free-drug, non-protein bound fraction.
Pharmacokinetic modelling was performed using PMetrics 1.5.0 with RStudio 0.99.902 and digital compiler Gfortran 5.2. […] Primary pharmacokinetic parameters of CL and Vd for the central compartment were calculated. Elimination from the central compartment and inter-compartmental distribution were modelled as first-order processes. Inter-compartmental distribution was described as rate of transfer from the unbound compartment to a peripheral compartment (Kcp) and rate of transfer from a peripheral compartment to the unbound compartment (Kpc). […] Volume of the peripheral compartment (Vp) was calculated as (Vc*Kcp)/Kpc, where Vc is the volume of the central compartment. Total Vd was calculated as the sum of Vc and Vp.
We selected the final model on the basis of minimizing the Akaike Information Criterion (AIC) and likelihood of the nested models (-2*Log-likelihood, -2*LL), with both criteria penalized by the number of parameters in the model. A reduction of -2*LL as calculated within Pmetrics was used for statistical comparison of nested models. We also factored bias (mean weighted predicted-observed error) and imprecision (bias-adjusted, mean weighted squared predicted-observed error) and correlation co-efficient into the selection of the final model. Shrinkage was calculated as the percentage of total variance in each model probability distribution.
Covariate model building was performed using sequential assessment of biologically plausible clinical characteristics. Continuous data was used for all covariates tested, with the exception of gender, which was male/female. The association of the covariates versus parameters was assessed by regression with linear or non-linear associations able to be used in the covariate model testing with inclusion based upon biological plausibility and a statistically significant improvement in log-likelihood. Inclusion age (months), weight (kg), height (cm), gender, C-reactive protein (mg/L), albumin (g/L), total bilirubin (mg/dl), serum creatinine (mg/dl), 24-h hydric balance (ml).

[3] = design: method as in Rybak, 2006; details: ref Rybak, 2006; cited from earlier work
[4] = pediatric ECMO patients, 11 PK profiles, population median

| PK profiles achieving PK/PD target fT 50% > 4 x MIC (Pseudomonas aeruginosa) [%] | CL (clearance of meropenem), median ([2]; human, in vivo) [L/h/kg] | Kcp (rate of transfer central to peripheral compartment), meropenem, mean ([2]; human, in vivo) [h⁻¹] | Kcp, meropenem, median ([2]; human, in vivo) [h⁻¹] | Kpc (rate of transfer peripheral to central compartment), meropenem, mean ([2]; human, in vivo) [h⁻¹] | Kpc, meropenem, median ([2]; human, in vivo) [h⁻¹] | Vc (central volume of distribution of meropenem), median ([2]; human, in vivo) [L/kg] | Vd (vc + vp), meropenem, mean ([2]; human, in vivo) [L/kg] | Vp (Vc*kcp/kpc), meropenem, mean ([2]; human, in vivo) [L/kg] | Structure (SMILES) | meropenem clearance in most reported studies, range [1] [L/h/kg] | Kcp (rate of transfer central to peripheral compartment), vancomycin, mean ([2]; pediatric ECMO patients, 11 PK profiles, population mean) [h⁻¹] | Kcp, vancomycin, median [2, 4] [h⁻¹] | Kpc, vancomycin, median [2, 4] [h⁻¹] | elimination route [3] |
| --- | --- | --- | --- | --- | --- | --- | --- | --- | --- | --- | --- | --- | --- | --- |
| 91 | 0.144 | 1.37 | 1.30 | 1.25 | 1.34 | 0.289 | 0.606 | 0.317 | C[C@@H](O)[C@H]1C(=O)N2C(C(=O)O)=C(S[C@@H]3CN[C@H](C(=O)N(C)C)C3)[C@H](C)[C@H]12 [meropenem] | 0.13 to 1.053 |  |  |  |  |
|  |  |  |  |  |  |  |  |  | CN[C@H](CC(C)C)C(=O)N[C@H]1C(=O)N[C@@H](CC(N)=O)C(=O)N[C@H]2C(=O)N[C@H]3C(=O)N[C@H](C(=O)N[C@H](C(=O)O)c4cc(O)cc(O)c4-c4cc3ccc4O)[C@H](O)c3ccc(c(Cl)c3)Oc3cc2cc(c3O[C@@H]2O[C@H](CO)[C@@H](O)[C@H](O)[C@H]2O[C@H]2C[C@](C)(N)[C@H](O)[C@H](C)O2)Oc2ccc(cc2Cl)[C@H]1O [vancomycin] |  | 0.483 | 0.481 | 0.286 | nearly completely renally eliminated |
